Experimental data from US20240228506A1, “RIPK1 INHIBITORS AND METHODS OF USE” (Merck Sharp & Dohme LLC, priority 2021, published 2024).

These compounds were tested against T1, GST-RIPK1 (recombinant GST-RIPK1 kinase domain (residues 1-327)) (Homo sapiens, UniProt Q13546) (assay: RIPK1-ADP-Glo enzymatic assay). Conditions: 25 nM GST-RIPK1, 300 μM ATP, 3 μM dephosphorylated-MBP; 30 minutes pre-incubation, 150 minutes reaction; ten-point titration.
T1 construct: recombinant GST-RIPK1 kinase domain (residues 1-327) enzyme; made in house; host or cells: baculovirus-transfected Sf21 insect cells
T1 sequence (Q13546 1-327): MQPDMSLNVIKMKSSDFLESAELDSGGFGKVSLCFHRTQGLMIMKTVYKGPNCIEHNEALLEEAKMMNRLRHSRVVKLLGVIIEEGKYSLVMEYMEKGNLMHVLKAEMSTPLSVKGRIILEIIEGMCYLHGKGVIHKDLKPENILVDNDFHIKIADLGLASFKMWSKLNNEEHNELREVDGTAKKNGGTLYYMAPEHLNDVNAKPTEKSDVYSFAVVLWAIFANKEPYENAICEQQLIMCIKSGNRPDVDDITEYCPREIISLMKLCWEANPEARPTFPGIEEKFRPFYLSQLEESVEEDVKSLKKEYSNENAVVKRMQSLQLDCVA
Type: biochemical
Summary of the method: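 Ten-point 1:3 titrations from 100000 nM, 1% DMSO, were preincubated 30 min with 25 nM GST-RIPK1 (1-327) before starting with 300 μM ATP plus 3 μM dephosphorylated MBP; 150 min reaction. ADP-Glo luminescence measured ATP-to-ADP conversion; EC50 by four-parameter sigmoidal regression.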

IC50	SMILES
98 nM	CC(C)(C(=O)N1C[C@@H]2C[C@H]1c1cncc(C#CCc3ccccc3)c1O2)C(F)F [Compound 2-46, 3,3-difluoro-2,2-dimethyl-1-((2S,5S)-9-(3-phenylprop-1-yn-1-yl)-2,3-dihydro-2,5-methanopyrido[3,4-f][1,4]oxazepin-4(5H)-yl)propan-1-one]
453 nM	O=C(N1C[C@@H]2C[C@H]1c1cncc(F)c1O2)C12CCC(CC1(F)F)C2 (single isomer, unassigned) [Compound 2-19, (2,2-(S or R)-difluorobicyclo[2.2.1]heptan-1-yl)((2S,5S)-9-fluoro-2,3-dihydro-2,5-methanopyrido[3,4-f][1,4]oxazepin-4(5H)-yl)methanone]
27 nM	CC1(C(=O)N2C[C@@H]3C[C@H]2c2cncc(C#N)c2O3)CCCC(F)(F)C1 (single isomer, unassigned) [Compound 1-41, (2S,5S)-4-[3,3-difluoro-1-(R or S)-methylcyclohexane-1-carbonyl]-2,3,4,5-tetrahydro-2,5-methanopyrido[3,4-f][1,4]oxazepine-9-carbonitrile]
232 nM	N#Cc1cncc2c1O[C@H]1C[C@@H]2N(C(=O)C2(F)CCN(c3cc(C4CC4)ncn3)CC2)C1 [Compound 1-71, (2S,5S)-4-(1-(6-cyclopropylpyrimidin-4-yl)-4-fluoropiperidine-4-carbonyl)-2,3,4,5-tetrahydro-2,5-methanopyrido[3,4-f][1,4]oxazepine-9-carbonitrile]
501 nM	CC12COC(C(=O)N3C[C@@H]4C[C@H]3c3cncc(C#N)c3O4)(C1)C2 [Compound 1-73, (2S,5S)-4-(4-methyl-2-oxabicyclo[2.1.1]hexane-1-carbonyl)-2,3,4,5-tetrahydro-2,5-methanopyrido[3,4-f][1,4]oxazepine-9-carbonitrile]
33 nM	Cc1ncc(C#Cc2cncc3c2O[C@H]2C[C@@H]3N(C(=O)C(C)(C)C(F)F)C2)cn1 [Compound 2-76, 3,3-difluoro-2,2-dimethyl-1-((2S,5S)-9-((2-methylpyrimidin-5-yl)ethynyl)-2,3-dihydro-2,5-methanopyrido[3,4-f][1,4]oxazepin-4(5H)-yl)propan-1-one]
156 nM	O=C(N1C[C@@H]2C[C@H]1c1cncc(F)c1O2)C12CCC(C1)C2 [Compound 2-30, bicyclo[2.1.1]hexan-1-yl((2S,5S)-9-fluoro-2,3-dihydro-2,5-methanopyrido[3,4-f][1,4]oxazepin-4(5H)-yl)methanone]
148 nM	C#CC(C)(C)C(=O)N1C[C@@H]2C[C@H]1c1cncc(C#N)c1O2 [Compound 1-96, (2S,5S)-4-(2,2-dimethylbut-3-ynoyl)-2,3,4,5-tetrahydro-2,5-methanopyrido[3,4-f][1,4]oxazepine-9-carbonitrile]
99 nM	CC(C)(C#N)C(=O)N1C[C@@H]2C[C@H]1c1cncc(C#N)c1S2 [Compound 4-5, (2S,5S)-4-(2-cyano-2-methylpropanoyl)-2,3,4,5-tetrahydro-2,5-methanopyrido[3,4-f][1,4]thiazepine-9-carbonitrile]
20 nM	O=C(N1C[C@@H]2C[C@H]1c1cncc(Cl)c1O2)C12CCC(CC1)C2 [Compound 2-31, Bicyclo[2.2.1]heptan-1-yl((2S,5S)-9-chloro-2,3-dihydro-2,5-methanopyrido[3,4-f][1,4]oxazepin-4(5H)-yl)methanone]
259 nM	CC(C)(Cc1ccccc1)C(=O)N1C[C@@H]2C[C@H]1c1cncc(C#N)c1O2 [Compound 1-68, (2S,5S)-4-(2,2-dimethyl-3-phenylpropanoyl)-2,3,4,5-tetrahydro-2,5-methanopyrido[3,4-f][1,4]oxazepine-9-carbonitrile]
197 nM	CC(C)(C(=O)N1C[C@@H]2C[C@H]1c1cncc(C#CCCc3ccccc3)c1O2)C(F)F [Compound 2-110, 3,3-difluoro-2,2-dimethyl-1-((2S,5S)-9-(4-phenylbut-1-yn-1-yl)-2,3-dihydro-2,5-methanopyrido[3,4-f][1,4]oxazepin-4(5H)-yl)propan-1-one]
65 nM	Cc1ccc(C#Cc2cncc3c2O[C@H]2C[C@@H]3N(C(=O)C(C)(C)C(F)F)C2)c(C)n1 [Compound 2-91, 1-((2S,5S)-9-((2,6-dimethylpyridin-3-yl)ethynyl)-2,3-dihydro-2,5-methanopyrido[3,4-f][1,4]oxazepin-4(5H)-yl)-3,3-difluoro-2,2-dimethylpropan-1-one]
24 nM	CC(C)(C(=O)N1C[C@@H]2C[C@H]1c1cncc(C#Cc3ccc(C4CC4)nc3)c1O2)C(F)F [Compound 2-83, 1-((2S,5S)-9-((6-cyclopropylpyridin-3-yl)ethynyl)-2,3-dihydro-2,5-methanopyrido[3,4-f][1,4]oxazepin-4(5H)-yl)-3,3-difluoro-2,2-dimethylpropan-1-one]
58 nM	CC(C)(C(=O)N1C[C@@H]2C[C@H]1c1cncc(C#Cc3cnc4cncn4c3)c1O2)C(F)F [Compound 2-93, 3,3-difluoro-1-((2S,5S)-9-(imidazo[1,5-a]pyrimidin-3-ylethynyl)-2,3-dihydro-2,5-methanopyrido[3,4-f][1,4]oxazepin-4(5H)-yl)-2,2-dimethylpropan-1-one]
184 nM	CC(C)(C(=O)N1C[C@@H]2C[C@H]1c1cncc(F)c1O2)C(F)F [Compound 2-1, 3,3-Difluoro-1-((2S,5S)-9-fluoro-2,3-dihydro-2,5-methanopyrido[3,4-f][1,4]oxazepin-4(5H)-yl)-2,2-dimethylpropan-1-one]
24 nM	CCC(C)(OC)C(=O)N1C[C@@H]2C[C@H]1c1cncc(C#N)c1O2 (single isomer, unassigned) [Compound 1-17, (2S,5S)-4-[2(S or R)-methoxy-2-methylbutanoyl]-2,3,4,5-tetrahydro-2,5-methanopyrido[3,4-f][1,4]oxazepine-9-carbonitrile]
64 nM	CN(C)C1(C(=O)N2C[C@@H]3C[C@H]2c2cncc(C#N)c2O3)CCC1 [Compound 1-91, (2S,5S)-4-(1-(dimethylamino)cyclobutane-1-carbonyl)-2,3,4,5-tetrahydro-2,5-methanopyrido[3,4-f][1,4]oxazepine-9-carbonitrile]
18 nM	O=C(N1C[C@@H]2C[C@H]1c1cncc(C#Cc3cscn3)c1O2)C12CCC(C(F)(F)F)(CC1)C2 [Compound 2-54, ((2S,5S)-9-(thiazol-4-ylethynyl)-2,3-dihydro-2,5-methanopyrido[3,4-f][1,4]oxazepin-4(5H)-yl)(4-(trifluoromethyl)bicyclo [2.2.1]heptan-1-yl)methanone]
117 nM	C[C@]1(C(=O)N2C[C@@H]3C[C@H]2c2cncc(C#N)c2S3)C[C@H](C#N)C1 [Compound 4-8, (2S,5S)-4-((1r,3S)-3-cyano-1-methylcyclobutane-1-carbonyl)-2,3,4,5-tetrahydro-2,5-methanopyrido[3,4-f][1,4]thiazepine-9-carbonitrile]
17 nM	O=C(N1C[C@@H]2C[C@H]1c1cncc(C#Cc3cnc4ccoc4c3)c1O2)C12CCC(C(F)(F)F)(CC1)C2 [Compound 2-53, ((2S,5S)-9-(furo[3,2-b]pyridin-6-ylethynyl)-2,3-dihydro-2,5-methanopyrido[3,4-f][1,4]oxazepin-4(5H)-yl)(4-(trifluoromethyl)bicyclo [2.2.1]heptan-1-yl)methanone]
21 nM	Cc1ccc(C#Cc2cncc3c2O[C@H]2C[C@@H]3N(C(=O)C34CCC(F)(CC3)C4)C2)cc1 [Compound 2-103, (4-fluorobicyclo[2.2.1]heptan-1-yl)((2S,5S)-9-(p-tolylethynyl)-2,3-dihydro-2,5-methanopyrido[3,4-f][1,4]oxazepin-4(5H)-yl)methanone]
116 nM	N#Cc1cc(N2CCC(F)(C(=O)N3C[C@@H]4C[C@H]3c3cncc(C#N)c3O4)CC2)ncn1 [Compound 1-52, (2S,5S)-4-(1-(6-cyanopyrimidin-4-yl)-4-fluoropiperidine-4-carbonyl)-2,3,4,5-tetrahydro-2,5-methanopyrido[3,4-f][1,4]oxazepine-9-carbonitrile]
56 nM	CC(C)(C(=O)N1C[C@@H]2C[C@H]1c1cncc(C#Cc3ccc(F)cc3)c1O2)C(F)F [Compound 2-41, 3,3-difluoro-1-((2S,5S)-9-((4-fluorophenyl)ethynyl)-2,3-dihydro-2,5-methanopyrido[3,4-f][1,4]oxazepin-4(5H)-yl)-2,2-dimethylpropan-1-one]
545 nM	N#Cc1cncc2c1O[C@H]1C[C@@H]2N(C(=O)C2(C(F)(F)F)CC2)C1 [Compound 1-75, (2S,5S)-4-(1-(trifluoromethyl)cyclopropane-1-carbonyl)-2,3,4,5-tetrahydro-2,5-methanopyrido[3,4-f][1,4]oxazepine-9-carbonitrile]
18 nM	COc1cccc(C#Cc2cncc3c2O[C@H]2C[C@@H]3N(C(=O)C34CCC(C(F)(F)F)(CC3)C4)C2)c1 [Compound 2-66, ((2S,5S)-9-((3-methoxyphenyl)ethynyl)-2,3-dihydro-2,5-methanopyrido[3,4-f][1,4]oxazepin-4(5H)-yl)(4-(trifluoromethyl)bicyclo [2.2.1]heptan-1-yl)methanone]
16 nM	O=C(N1C[C@@H]2C[C@H]1c1cncc(C#Cc3ccccc3)c1O2)C12CCC(C(F)(F)F)(CC1)C2 [Compound 2-64, ((2S,5S)-9-(phenylethynyl)-2,3-dihydro-2,5-methanopyrido[3,4-f][1,4]oxazepin-4(5H)-yl)(4-(trifluoromethyl)bicyclo [2.2.1]heptan-1-yl)methanone]
